In publication PMC8218751, “Visualizing Borrelia burgdorferi Infection Using a Small-Molecule Imaging Probe” (Journal of Clinical Microbiology, 2021):

Key:
[1] = biological target: T1, B. burgdorferi HtpG (Borreliella burgdorferi, UniProt P42555); test: biochemical; assay type: binding, Borrelia burgdorferi
T1 construct: His6 (N); made in house; host or cells: E. coli BL21(DE3)
Description: Escherichia coli (strain BL21/DE3) genomic DNA was isolated from a lab culture generated from the cloning/expression bacterium (ThermoFisher catalog no. EC0114) by overnight proteinase K digestion at 56°C, high-salt clarification, and ethanol precipitation. […] Human Hsp90-alpha sequences were derived from cDNA generated from total mRNA of the human breast epithelial line, MCF10A. HtpG DNA sequences were PCR cloned from these DNAs using primers designed to allow in-frame cloning with GFP in the isopropyl-β-D-thiogalactopyranoside (IPTG)-inducible bacterial expression vector. […] Fusion protein cloning was done using the ligation-independent cloning procedure via single-nucleotide T4 DNA polymerase treatment of vector and purified PCR products followed by annealing of complementary single-strand ends before transformation into DH5 E. coli. […] Fusion protein synthesis was induced by incubation with 1 mM IPTG or autoinduction ([17]).
γ-linked ATP Sepharose matrix was generated as described previously by the Haystead lab ([18]). […] The clarified lysate was added to a column containing ATP-bound Sepharose. The column was washed with low-salt buffer (150 mM NaCl, 25 mM HEPES, pH 7.4, 1 mM dithiothreitol [DTT], and 60 mM MgCl2), followed by high-salt buffer (1 M NaCl, 25 mM HEPES, pH 7.4, 1 mM DTT, 0.1% IGEPAL, and 60 mM MgCl2) and once again low-salt buffer to remove unbound protein. Next, the resin with bound proteins (50 μl) was transferred to a 0.2-μm polyvinylidene fluoride filter 96-well plate (Corning) sitting on top of a black flat-bottomed 96-well catch plate (Corning). […] The eluted proteins were measured in a fluorescent plate reader to detect the GFP.
Subtle single amino acid differences are present within the catalytic clefts of these proteins, especially between residues that contact the nucleotide. […] We therefore reasoned that these differences may be sufficient to design small molecules that can similarly discriminate HtpG of stealth organisms. To test this hypothesis, we utilized a fluorescent-linked enzyme chemoproteomic strategy (FLECS) assay to test known Hsp90 inhibitors ([18]) for binding to various HtpG constructs. First, we cloned and expressed in E. coli recombinant N-terminal GFP-fusion forms of HtpG from B. burgdorferi, E. coli, and Treponema denticola, the oral spirochete, as well as human Hsp90. We then incubated lysate after protein expression with an ATP Sepharose resin to enable binding. In this assay, ATP is tethered to Sepharose beads via its γ-phosphate, enabling the nucleotide to bind to ATP binding proteins such as Hsp90 and HtpG, but is nonhydrolyzable ([24]). After proteins are bound to the ATP Sepharose resin, small molecules with affinity for the ATP binding site will elute the GFP-fusion protein, which can readily be detected and quantified on a plate fluorometer.
These compounds were selected for testing based on their known binding to human Hsp90 ([25], [26]).

[2] = test system: B. burgdorferi; test: Fixed or denatured B. burgdorferi imaging, flagellin costaining and CLEM; assay type: cell-based, Borrelia burgdorferi
Description: Bacterial cultures in logarithmic phase were washed and resuspended in phosphate-buffered saline (PBS). Suspension was added to a positively charged slide, and an equal volume of 3:1 methanol-acetic acid was added to the suspension for 5 min. Slides were washed with 0.01% Tween 20/PBS (PBS-T) followed by PBS. Ten percent nonfat dry milk/PBS blocking solution was added for 45 min. Slides were washed with PBS and incubated for 45 min with 1:500 flagellin antibody (Rockland 200-401-C14) diluted in 1% nonfat dry milk/PBS. Slides were washed with PBS-T and then incubated for 30 min with FITC-conjugated anti-rabbit (Invitrogen catalog number A11008; 1:500 dilution), containing 10 μM HS-198. […].
Correlative light electron microscopy (CLEM) was performed by Shannon Modla and Jeff Caplan at the bioimaging center of the Delaware Biotechnology Institute. Cells were attached to an Ibidi μ-dish containing an imprinted 500-μm cell location grid using 4% paraformaldehyde (PFA) for 20 min. Cells were then incubated with 10 μM HS-198 for 10 min followed by a PBS wash. PBS filled the dish to the top for transport to the Delaware Institute for further processing. The cells were then imaged using Zeiss 880 Airyscan. […]

T1 sequence (P42555 whole entry): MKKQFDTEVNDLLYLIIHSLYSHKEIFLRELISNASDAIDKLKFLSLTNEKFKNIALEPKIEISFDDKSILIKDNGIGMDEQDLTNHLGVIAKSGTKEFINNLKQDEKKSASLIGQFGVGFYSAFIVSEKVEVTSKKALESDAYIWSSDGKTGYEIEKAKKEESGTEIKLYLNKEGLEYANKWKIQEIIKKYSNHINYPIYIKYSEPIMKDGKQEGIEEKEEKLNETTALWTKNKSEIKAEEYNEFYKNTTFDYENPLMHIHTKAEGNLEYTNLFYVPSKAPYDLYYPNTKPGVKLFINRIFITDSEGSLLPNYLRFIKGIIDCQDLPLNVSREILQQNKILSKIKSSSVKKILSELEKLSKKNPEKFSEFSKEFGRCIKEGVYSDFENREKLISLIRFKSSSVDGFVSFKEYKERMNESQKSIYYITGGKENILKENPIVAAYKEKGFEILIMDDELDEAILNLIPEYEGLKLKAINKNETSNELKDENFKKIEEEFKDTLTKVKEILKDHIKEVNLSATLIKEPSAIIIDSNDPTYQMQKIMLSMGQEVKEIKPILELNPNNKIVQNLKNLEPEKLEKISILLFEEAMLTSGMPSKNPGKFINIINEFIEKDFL

Cc1nn(-c2ccc(C(=O)N(C)C)c(NCCCOCCOCCOCCOCCOCCCNCc3ccc(C(=C\C=C4/N(CCCCS(=O)(=O)O)c5ccccc5C4(C)C)/C=C/C4=[N+](CCCCS(=O)(=O)[O-])c5ccccc5C4(C)C)cc3)c2)c2c1C(=O)CC(C)(C)C2 [HS-198]
Kd [1]: 5.6 ± 3 µM | Elution of B. burgdorferi GFP-HtpG from ATP Sepharose beads ([1]; in words): selectively eluted the bound fusion protein | Localization within the spirochete ([2]; 10 μM, flagellin antibody costaining, CLEM): accumulated inside the protoplasmic cylinder | Staining of denatured spirochetes ([2]; heat denaturation (5 min at 90°C or 15 min at 50°C) or alcohol fixation (2:1 ethanol), data not shown): capable of staining spirochetes
